Measurements taken from patent US11000033B2, “Ketone or oxime compound, and herbicide” (NISSAN CHEMICAL CORPORATION, priority 2014, dated 2021).

What was measured:
Assay type in all cases: in vivo
[1] = system: Echinochloa crus-galli var. crus-galli; test: Test Example 5: herbicidal effect by foliage application, plastic box (symbol H); conditions: 320 g/ha, 3 weeks after application
Method in brief: (§1)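 Seeds were sown in sterilized diluvial soil, covered with about 1.5 cm of soil and grown 14 days in a greenhouse at 25° C. to 30° C. An emulsifiable formulation diluted in water to a set rate was sprayed over foliage, and injury was scored 3 weeks later.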

rice = test: Test Example 4: effect on crop by soil treatment (symbol b); conditions: application herbicide amount 320 g/ha
Method in brief: (§2)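 Crop seeds, among them rice, wheat, beet and rapeseed, were sown in sterilized diluvial soil and covered with about 1.5 cm of soil. Boxes were kept in a greenhouse at 25° C. to 30° C. for plant growth.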

[2] = system: Echinochloa crus-galli var. crus-galli; test: Test Example 4: herbicidal effect by soil treatment (symbol H); conditions: application herbicide amount 320 g/ha
Method in brief: (§3)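 Seeds were sown in sterilized diluvial soil, covered with about 1.5 cm of soil, and the soil surface was sprayed with a water-diluted emulsion of the compound at a predetermined rate. Plants grew in a greenhouse at 25° C. to 30° C.; effects were scored visually 3 weeks after application.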

Apera spica-venti [3] = test: Test Example 4: herbicidal effect by soil treatment (symbol L); conditions: application herbicide amount 320 g/ha
Method in brief: as §3

beet = test: Test Example 4: effect on crop by soil treatment (symbol f); conditions: application herbicide amount 320 g/ha
Method in brief: as §2

Monochoria vaginalis [4] = test: Test Example 2: herbicidal activity, application during weed generation in submerged conditions (symbol C); conditions: Table 23; application herbicide amount 320 g/ha; grade 0-5 by criteria of Test Example 1
Method in brief: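 Treatment timing was the one- to two-leaf stage, with diluted emulsifiable compound dropped onto the paddy water (depth 4 cm) over alluvial soil. All three species grew from a mixed sowing in a 25° C. to 30° C. greenhouse. Injury was judged by eye 3 weeks on.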

Avena fatua [5] = test: Test Example 4: herbicidal effect by soil treatment (symbol I); conditions: application herbicide amount 320 g/ha
Method in brief: as §3

[6] = system: Echinochloa oryzacola Vasing.; test: Test Example 1: herbicidal activity, application before weed generation in submerged conditions (symbol A); conditions: application herbicide amount 320 g/ha
Method in brief: (§4)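 Compound emulsion was diluted to a set herbicide amount and applied to the water surface on the sowing day, into submerged (4 cm) alluvial-soil pots sown with mixed weed seeds and transplanted 2.5-leaf rice. Pots were held in a 25–30 °C greenhouse, and weeds were scored 0–5 by herbicidal ratio after 3 weeks.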

Monochoria vaginalis [7] = test: Test Example 1: herbicidal activity, application before weed generation in submerged conditions (symbol C); conditions: application herbicide amount 320 g/ha
Method in brief: as §4

Abutilon theophrasti = test: Test Example 4: herbicidal effect by soil treatment (symbol M); conditions: application herbicide amount 320 g/ha
Method in brief: as §3

corn = test: Test Example 5: effect on crop by foliage application, plastic box (symbol c); conditions: 320 g/ha, 3 weeks after application
Method in brief: (§5)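 Plants were raised from seed in a greenhouse (25° C. to 30° C.) after sowing in a plastic box of sterilized diluvial soil.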

Apera spica-venti [8] = test: Test Example 5: herbicidal effect by foliage application, plastic box (symbol L); conditions: 320 g/ha, 3 weeks after application
Method in brief: as §1

Setaria viridis = test: Test Example 5: herbicidal effect by foliage application, plastic box (symbol G); conditions: 320 g/ha, 3 weeks after application
Method in brief: as §1

soybean = test: Test Example 4: effect on crop by soil treatment (symbol d); conditions: application herbicide amount 320 g/ha
Method in brief: as §2

Avena fatua [9] = test: Test Example 5: herbicidal effect by foliage application, plastic box (symbol I); conditions: 320 g/ha, 3 weeks after application
Method in brief: as §1

rapeseed = test: Test Example 5: effect on crop by foliage application, plastic box (symbol g); conditions: 320 g/ha, 3 weeks after application
Method in brief: as §5

CCc1cc(-c2ccc(Cl)cc2)cc(C)c1C1=C(O)CC(CC(C)=NOC)C1=O (stereo not drawn) [6-066]
H: Echinochloa crus-galli var. crus-galli, herbicidal effect (criteria of Test Example 1) [1]: 5 (Herbicidal ratio of 90% or more (almost completely withered))
b: directly sowed rice plant, effect on crop grade (rice): 5 (Herbicidal ratio of 90% or more (almost completely withered))
H: Echinochloa crus-galli var. crus-galli, herbicidal effect grade [2]: 5 (Herbicidal ratio of 90% or more (almost completely withered))
L: Apera spica-venti, herbicidal effect grade (Apera spica-venti [3]): 5 (Herbicidal ratio of 90% or more (almost completely withered))
f: beet, effect on crop grade (beet): 0 (Herbicidal ratio of 5% or lower (almost no effect))
Herbicidal effect grade, C: Monochoria vaginalis (Monochoria vaginalis [4]): 0 (Herbicidal ratio of 5% or lower (almost no effect))
I: Avena fatua, herbicidal effect grade (Avena fatua [5]): 5 (Herbicidal ratio of 90% or more (almost completely withered))
Herbicidal effect grade, A: Echinochloa oryzacola Vasing. [6]: 5 (Herbicidal ratio of 90% or more (almost completely withered))
Herbicidal effect grade, C: Monochoria vaginalis (Monochoria vaginalis [7]): 2 (Herbicidal ratio of 20% or higher and lower than 40%)
M: Abutilon theophrasti, herbicidal effect grade (Abutilon theophrasti): 0 (Herbicidal ratio of 5% or lower (almost no effect))
c: corn, effect on crop (criteria of Test Example 1) (corn): 5 (Herbicidal ratio of 90% or more (almost completely withered))
L: Apera spica-venti, herbicidal effect (criteria of Test Example 1) (Apera spica-venti [8]): 5 (Herbicidal ratio of 90% or more (almost completely withered))
G: Setaria viridis, herbicidal effect (criteria of Test Example 1) (Setaria viridis): 5 (Herbicidal ratio of 90% or more (almost completely withered))
d: soybean, effect on crop grade (soybean): 0 (Herbicidal ratio of 5% or lower (almost no effect))
I: Avena fatua, herbicidal effect (criteria of Test Example 1) (Avena fatua [9]): 5 (Herbicidal ratio of 90% or more (almost completely withered))

CON=C(C)CC1CC(OC(=O)C2CC2)=C(c2c(C)cc(C)cc2C)C1=O (stereo not drawn) [1-015]
H: Echinochloa crus-galli var. crus-galli, herbicidal effect grade [1]: 5 (Herbicidal ratio of 90% or more (almost completely withered))
g: rapeseed, effect on crop grade (rapeseed): 4 (Herbicidal ratio of 70% or higher and lower than 90%)
b (directly sowed rice plant) effect on crop grade (rice): 5 (Herbicidal ratio of 90% or more (almost completely withered))
H (Echinochloa crus-galli var. crus-galli) herbicidal effect grade [2]: 5 (Herbicidal ratio of 90% or more (almost completely withered))
L (Apera spica-venti) herbicidal effect grade (Apera spica-venti [3]): 5 (Herbicidal ratio of 90% or more (almost completely withered))
Herbicidal effect grade, C: Monochoria vaginalis (Monochoria vaginalis [4]): 4 (Herbicidal ratio of 70% or higher and lower than 90%)
I (Avena fatua) herbicidal effect grade (Avena fatua [5]): 5 (Herbicidal ratio of 90% or more (almost completely withered))
Herbicidal effect grade, A: Echinochloa oryzacola Vasing. [6]: 5 (Herbicidal ratio of 90% or more (almost completely withered))
Herbicidal effect grade, C: Monochoria vaginalis (Monochoria vaginalis [7]): 2 (Herbicidal ratio of 20% or higher and lower than 40%)
M (Abutilon theophrasti) herbicidal effect grade (Abutilon theophrasti): 5 (Herbicidal ratio of 90% or more (almost completely withered))
c: corn, effect on crop grade (corn): 5 (Herbicidal ratio of 90% or more (almost completely withered))
L: Apera spica-venti, herbicidal effect grade (Apera spica-venti [8]): 5 (Herbicidal ratio of 90% or more (almost completely withered))
G: Setaria viridis, herbicidal effect grade (Setaria viridis): 5 (Herbicidal ratio of 90% or more (almost completely withered))
d (soybean) effect on crop grade (soybean): 3 (Herbicidal ratio of 40% or higher and lower than 70%)
I: Avena fatua, herbicidal effect grade (Avena fatua [9]): 5 (Herbicidal ratio of 90% or more (almost completely withered))

CC(=O)CC1CC(O)=C(c2c(C)cc(Oc3ccc(C(F)(F)F)cn3)cc2C)C1=O (stereo not drawn) [7-019]
H: Echinochloa crus-galli var. crus-galli, herbicidal effect (criteria of Test Example 1) [1]: 4 (Herbicidal ratio of 70% or higher and lower than 90%)
g: rapeseed, effect on crop (criteria of Test Example 1) (rapeseed): 2 (Herbicidal ratio of 20% or higher and lower than 40%)
Effect on crop grade, b: directly sowed rice plant (rice): 0 (Herbicidal ratio of 5% or lower (almost no effect))
Herbicidal effect grade, H: Echinochloa crus-galli var. crus-galli [2]: 0 (Herbicidal ratio of 5% or lower (almost no effect))
Herbicidal effect grade, L: Apera spica-venti (Apera spica-venti [3]): 0 (Herbicidal ratio of 5% or lower (almost no effect))
Effect on crop grade, f: beet (beet): 0 (Herbicidal ratio of 5% or lower (almost no effect))
Herbicidal effect grade, I: Avena fatua (Avena fatua [5]): 0 (Herbicidal ratio of 5% or lower (almost no effect))
Herbicidal effect grade, A: Echinochloa oryzacola Vasing. [6]: 1 (Herbicidal ratio of 5% or higher and lower than 20%)
Herbicidal effect grade, C: Monochoria vaginalis (Monochoria vaginalis [7]): 0 (Herbicidal ratio of 5% or lower (almost no effect))
Herbicidal effect grade, M: Abutilon theophrasti (Abutilon theophrasti): 0 (Herbicidal ratio of 5% or lower (almost no effect))
c: corn, effect on crop (criteria of Test Example 1) (corn): 2 (Herbicidal ratio of 20% or higher and lower than 40%)
L: Apera spica-venti, herbicidal effect (criteria of Test Example 1) (Apera spica-venti [8]): 3 (Herbicidal ratio of 40% or higher and lower than 70%)
G: Setaria viridis, herbicidal effect (criteria of Test Example 1) (Setaria viridis): 3 (Herbicidal ratio of 40% or higher and lower than 70%)
Effect on crop grade, d: soybean (soybean): 0 (Herbicidal ratio of 5% or lower (almost no effect))
I: Avena fatua, herbicidal effect (criteria of Test Example 1) (Avena fatua [9]): 0 (Herbicidal ratio of 5% or lower (almost no effect))

CON=C(C)CC1CC(O)=C(c2c(C)cc(-c3ccsc3)cc2C)C1=O (stereo not drawn) [6-106]
H: Echinochloa crus-galli var. crus-galli, herbicidal effect (criteria of Test Example 1) [1]: 5 (Herbicidal ratio of 90% or more (almost completely withered))
g: rapeseed, effect on crop (criteria of Test Example 1) (rapeseed): 5 (Herbicidal ratio of 90% or more (almost completely withered))
Effect on crop grade, b: directly sowed rice plant (rice): 1 (Herbicidal ratio of 5% or higher and lower than 20%)
Herbicidal effect grade, H: Echinochloa crus-galli var. crus-galli [2]: 5 (Herbicidal ratio of 90% or more (almost completely withered))
Effect on crop grade, f: beet (beet): 0 (Herbicidal ratio of 5% or lower (almost no effect))
Herbicidal effect grade, C: Monochoria vaginalis (Monochoria vaginalis [4]): 4 (Herbicidal ratio of 70% or higher and lower than 90%)
Herbicidal effect grade, I: Avena fatua (Avena fatua [5]): 3 (Herbicidal ratio of 40% or higher and lower than 70%)
Herbicidal effect grade, A: Echinochloa oryzacola Vasing. [6]: 5 (Herbicidal ratio of 90% or more (almost completely withered))
Herbicidal effect grade, C: Monochoria vaginalis (Monochoria vaginalis [7]): 4 (Herbicidal ratio of 70% or higher and lower than 90%)
Herbicidal effect grade, M: Abutilon theophrasti (Abutilon theophrasti): 0 (Herbicidal ratio of 5% or lower (almost no effect))
c: corn, effect on crop (criteria of Test Example 1) (corn): 5 (Herbicidal ratio of 90% or more (almost completely withered))
L: Apera spica-venti, herbicidal effect (criteria of Test Example 1) (Apera spica-venti [8]): 5 (Herbicidal ratio of 90% or more (almost completely withered))
G: Setaria viridis, herbicidal effect (criteria of Test Example 1) (Setaria viridis): 5 (Herbicidal ratio of 90% or more (almost completely withered))
Effect on crop grade, d: soybean (soybean): 0 (Herbicidal ratio of 5% or lower (almost no effect))
I: Avena fatua, herbicidal effect (criteria of Test Example 1) (Avena fatua [9]): 3 (Herbicidal ratio of 40% or higher and lower than 70%)
